The results in this text go back to patent US7390836B2, “Small molecules used to increase cell death” (priority 1999, dated 2008).

One experiment relates to BH3/Bcl-xL binding. The experiment is described as follows: SELDI binding assay, unlabeled Bak BH3 peptide on immobilized Bcl-xL-His6. The source says:
To test the possibility that BH3Is target the OREGON GREEN moiety of the fluorescently labeled BH3 peptide, a novel BH3/Bcl-xL binding assay using unlabeled BH3 peptide was designed. In this assay Bcl-xL was covalently attached to a surface-enhanced laser desorption/ionization (SELDI) chip, and binding of the unlabelled BH3 peptide to the immobilized protein was monitored by mass spectrometry. Specifically, purified recombinant GST-Bcl-2 and BCL-xL-His6 were coupled through their primary amines to SELDI chip surfaces derivatized with carbonyldiimidazole (Ciphergen). Bak BH3 peptide was then added (in a total volume of 1 μl) for 12 hours at 4° C. in a humidified chamber, to allow binding to each spot of the SELDI chip. The chip was then washed with alternating high and low pH-0.1M sodium acetate with 0.5M NaCl, followed by 0.01M HEPES; pH 7.3. The samples were embedded in α-cyanno-4-hydroxycinnamaic acid matrix and analyzed for mass by MALDI TOF. An average of 100 laser shots at a constant setting were collected over 20 spots in each sample.

The target in another experiment is T1, Bcl-xL (Homo sapiens, UniProt Q07817, DEL45-84).
T1 construct: His6 (C); made in house
Nature of the experiment: Bcl-xL pore formation, carboxyfluorescein release from liposomes. The note with it: 5 μM Bcl-xL-His6, pH 4.0. Type of experiment: biochemical. The protocol: Bcl-xL forms membrane pores, and the formation of these pores may play a role in Bcl-xL's ability to regulate apoptosis. Thus, the effects of the BH3Is on pore formation by Bcl-xL were tested (Minn, et al., Nature 385:353-7, 1997; Schendel et al., Proc. Natl. Acad. Sci. USA 94:5113-8, 1997; Minn et al., EMBO J. 18:632-43,1999; and Matsuyama et al., J. Biol. Chem. 273:30995-1001, 1998). Liposomes containing 20 mM of 5,6-carboxyfluorescein were prepared as previously described (Antonsson, et al., Science 277:370-2,1997). For Bcl-xL pore formation 5 μM Bcl-xL-His6 was preincubated with BH3I-2 or Bak BH3 peptide in 50 μl of 5 mM sodium citrate, 150 mM NaCl, pH 4.0 buffer for 10 min at 25° C., followed by addition of 5 μl of undiluted liposomes. Prior to determination of the fluorescence pH was adjusted by adding 10 μl of 1.5 M Tris-HCl, pH 7.5.

T1 sequence (Q07817 with tags, fused parts or gaps DEL45-84 limits assumed): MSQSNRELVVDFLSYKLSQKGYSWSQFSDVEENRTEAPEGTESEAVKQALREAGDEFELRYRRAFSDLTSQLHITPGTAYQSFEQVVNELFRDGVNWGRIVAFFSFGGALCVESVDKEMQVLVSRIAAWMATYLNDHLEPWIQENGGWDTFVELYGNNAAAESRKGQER

As to “KGGGQVGRQLAIIGDDINR (SEQ ID NO: 2) (BAK) [BH3 peptide, nineteen amino acid Bak peptide corresponding to the BH3 domain of Bak, reference compound]”, in the experiment with BH3/Bcl-xL binding, the “binding of BH3 peptide to Bcl-xL-modified surface” value was “bound to the Bcl-xL-modified surface in a dose-dependent fashion”. Moreover, in the experiment with Bcl-xL, the “Bcl-xL-mediated release of carboxyfluorescein from liposomes” value is “Neither BH3Is nor BH3 peptide affected”.
